Measurements published in ChEMBL document CHEMBL3877333, “Bicyclic Ketone Sulfonamide Compounds” (ACS Med Chem Lett, 2017).

Target: Sodium channel protein type 9 subunit alpha (Homo sapiens, UniProt Q15858)
Test: Inhibition of human Nav1.7 expressed in HEK293 cells at holding potential yielding 20 to 50% inactivation measured after 3 mins by patchXpress electrophysiology assay
Format: cell-based

Sequence of Sodium channel protein type 9 subunit alpha (Q15858 whole entry): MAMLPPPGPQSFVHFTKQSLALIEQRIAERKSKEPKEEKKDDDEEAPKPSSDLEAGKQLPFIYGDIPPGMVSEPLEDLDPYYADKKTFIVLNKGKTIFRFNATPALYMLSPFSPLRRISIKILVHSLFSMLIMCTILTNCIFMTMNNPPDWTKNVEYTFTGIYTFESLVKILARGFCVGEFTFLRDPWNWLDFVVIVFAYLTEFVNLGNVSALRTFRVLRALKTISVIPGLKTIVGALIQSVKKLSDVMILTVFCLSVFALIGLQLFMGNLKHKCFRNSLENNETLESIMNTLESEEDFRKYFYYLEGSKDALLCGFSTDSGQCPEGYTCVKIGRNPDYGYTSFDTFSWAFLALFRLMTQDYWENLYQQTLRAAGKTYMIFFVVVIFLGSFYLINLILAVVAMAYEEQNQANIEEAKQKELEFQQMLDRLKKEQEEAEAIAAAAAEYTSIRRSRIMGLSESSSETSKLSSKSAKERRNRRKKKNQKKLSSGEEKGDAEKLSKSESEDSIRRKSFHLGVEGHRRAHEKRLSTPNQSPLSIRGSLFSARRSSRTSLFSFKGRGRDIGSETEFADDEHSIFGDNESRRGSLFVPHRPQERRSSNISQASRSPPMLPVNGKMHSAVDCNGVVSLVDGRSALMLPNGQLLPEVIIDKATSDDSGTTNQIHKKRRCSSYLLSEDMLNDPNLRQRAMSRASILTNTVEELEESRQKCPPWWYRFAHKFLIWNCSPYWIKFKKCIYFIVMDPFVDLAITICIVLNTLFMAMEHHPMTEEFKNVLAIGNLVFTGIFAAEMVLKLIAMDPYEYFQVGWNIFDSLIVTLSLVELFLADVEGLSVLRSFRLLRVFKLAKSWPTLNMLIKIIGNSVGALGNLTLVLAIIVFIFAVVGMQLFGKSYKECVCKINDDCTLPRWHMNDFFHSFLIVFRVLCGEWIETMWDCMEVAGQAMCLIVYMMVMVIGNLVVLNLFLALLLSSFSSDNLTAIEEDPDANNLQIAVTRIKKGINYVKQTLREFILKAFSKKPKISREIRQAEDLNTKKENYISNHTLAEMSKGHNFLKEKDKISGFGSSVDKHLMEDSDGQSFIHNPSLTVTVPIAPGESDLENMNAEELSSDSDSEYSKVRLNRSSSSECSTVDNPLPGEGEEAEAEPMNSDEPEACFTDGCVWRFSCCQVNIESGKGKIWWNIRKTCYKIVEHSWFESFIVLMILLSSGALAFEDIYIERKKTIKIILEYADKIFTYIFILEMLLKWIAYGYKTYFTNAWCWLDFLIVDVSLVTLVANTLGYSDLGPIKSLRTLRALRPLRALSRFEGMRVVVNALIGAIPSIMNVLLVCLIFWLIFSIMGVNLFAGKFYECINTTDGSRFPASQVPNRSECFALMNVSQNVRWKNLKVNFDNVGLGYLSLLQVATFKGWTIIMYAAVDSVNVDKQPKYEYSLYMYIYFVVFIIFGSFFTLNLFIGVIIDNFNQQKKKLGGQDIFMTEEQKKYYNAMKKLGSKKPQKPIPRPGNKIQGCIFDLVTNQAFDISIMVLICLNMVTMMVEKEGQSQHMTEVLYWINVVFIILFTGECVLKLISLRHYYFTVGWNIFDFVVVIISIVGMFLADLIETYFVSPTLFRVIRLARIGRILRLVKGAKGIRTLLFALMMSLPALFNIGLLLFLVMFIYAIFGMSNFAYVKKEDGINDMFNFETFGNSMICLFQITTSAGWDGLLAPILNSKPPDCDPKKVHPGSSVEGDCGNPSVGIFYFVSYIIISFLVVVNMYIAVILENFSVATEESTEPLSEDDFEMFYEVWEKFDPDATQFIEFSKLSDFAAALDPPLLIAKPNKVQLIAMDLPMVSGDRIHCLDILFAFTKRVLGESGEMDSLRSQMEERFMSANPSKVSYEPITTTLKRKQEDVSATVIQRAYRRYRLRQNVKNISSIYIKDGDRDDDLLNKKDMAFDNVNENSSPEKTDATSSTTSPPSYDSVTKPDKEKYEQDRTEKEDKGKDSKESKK

COc1cc(-c2cccc(OC(F)F)c2)c(F)cc1-n1c2c(ccc1=O)CN(S(=O)(=O)Nc1ccon1)CC2
IC50: 5.5 nM

COc1cc(-c2ccc(Cl)c(C)c2)c(F)cc1-n1c2c(ccc1=O)CN(S(=O)(=O)Nc1cccnn1)CC2
IC50: 19.6 nM

COc1cc(-c2cccc(C(F)(F)F)c2)c(F)cc1-n1c2c(ccc1=O)CN(S(=O)(=O)Nc1ccon1)CC2
IC50: 4.7 nM

COc1cc(-c2cc(F)cc(Cl)c2)c(F)cc1-n1c2c(ccc1=O)CN(S(=O)(=O)Nc1ccon1)CC2
IC50: 4.3 nM

COc1cc(-c2ccc(F)c(F)c2)c(F)cc1-n1c2c(ccc1=O)CN(S(=O)(=O)Nc1cccnn1)CC2
IC50: 23.7 nM

COc1cc(-c2ccc(F)c(F)c2)c(F)cc1-n1c2c(ccc1=O)CN(S(=O)(=O)Nc1ccon1)CC2
IC50: 6.7 nM

COc1cc(-c2cc(OC)c(-n3c4c(ccc3=O)CN(S(=O)(=O)Nc3ccon3)CC4)cc2F)ccc1C
IC50: 12.3 nM
